Assay results from patent US12208118B2, “Pharmaceutical compositions for delivery of peptide” (ANYA BIOPHARM INC., priority 2017, dated 2025).

What was measured:
[1] = Quantification of liraglutide level in dog plasma using ELISA kit; type: in vivo; conditions: following subcutaneous and oral administration, dogs
Procedure: Quantification of Liraglutide Level in Dog Plasma Using ELISA Kit
Test formulation I: Liraglutide—Appearance: Solution for injection in a prefilled pen; Concentration: 6 mg/ml; Date of manufacture: February 2017; Date of expiry: July 2019; Storage condition: 2-8° C.; Dose: 0.6 mg/dog; Route: SC.
Test formulation II (FA): MIRA 5 (Table 15E)+PA 2 (Table 16F)—Dose: 12 mg (one capsule)/dog; Route: Oral.
Test formulation III (G): MIRA 5 (Table 15E)+PA 3+4 (Table 16G)—Dose: 12 mg (one capsule)/dog; Route: Oral
The clinical signs observed are normal. Body weights of the dogs used in the study were recorded prior to dosing. During the period of dose administration, the dogs (Canis lupus familiaris. Breed: Beagle) were fasted (water allowed) overnight for approx. 12 hours prior to and 4 hours post dose administration. During dosing, the blood collection time points was at 0, 20, 30, 60, 120, 180, 240, 480 minutes post dose. […] Glucose was measured immediately after blood collection using Glucometer. […]
Kit Protocol: Used manufacturer recommended protocol (Cat.No.KBI5020) Ver2.0—(1) Determine wells for diluted standard, blank and sample. […] Add 50 μL each of dilutions of standard (read Reagent Preparation), blank and samples into the appropriate wells, respectively. […] Then, run the microplate reader and conduct measurement at 450 nm immediately.

[2] = Quantification of octreotide in rat plasma using ELISA kit; type: in vivo, S.D. rat; conditions: following subcutaneous and distal small intestine (ileum) administration, rats
Procedure: Quantification of Octreotide in Rat Plasma Using ELISA Kit
Test formulation I: Octreotide—Apprearance: Solution for injection; Concentration: 0.1 mg/ml; Storage condition: 2-8° C.; Dose: 10 μg/kg; Route: SC.
Test formulation II: MIRA 3 (Table 15C)+PA 1 (Table 16C) to be dosed into distal small intestine (ileum) to anesthetized S.D. rat; Dose: 144 μg/animal; Route: distal small intestine (ileum). During the experiment, the animals were non-fasted.
The clinical signs observed are normal. During dosing, the blood collection time points were at 0, 7, 15, 30, 45, 60 and 90 min post dose. ˜100 μl of blood was collected in a pre-filled Na-EDTA eppendorf, from retro-orbital sinus puncture. Blood was centrifuged at 5000 rpm, 5 min, 4° c. to obtain plasma.
Source: PeninsulaLaboratories International, Inc, Cat. No. S-1341.0001
Kit Protocol: Used manufacturer recommended protocol (Cat. No. S-1341.0001)—Into each well of the immunoplate add 25 μl antiserum (in EIA buffer). Add 25 μl EIA buffer to blank wells; Incubate at room temperature for 1 hour; Add 50 μl standard or sample (in diluent). […] Add 50 μl diluent to blank wells; Incubate at room temperature for 2 hours. […] You may read the developing blue color at 650 nm and use the data for your calculations. […] Read absorbance at 450 nm within ten minutes.

With `CCCCCCCCCCCCCCCC(=O)N[C@@H](CCC(=O)NCCCC[C@H](NC(=O)[C@H](C)NC(=O)[C@H](C)NC(=O)[C@H](CCC(N)=O)NC(=O)CNC(=O)[C@H](CCC(=O)O)NC(=O)[C@H](CC(C)C)NC(=O)[C@H](Cc1ccc(O)cc1)NC(=O)[C@H](CO)NC(=O)[C@H](CO)NC(=O)[C@@H](NC(=O)[C@H](CC(=O)O)NC(=O)[C@H](CO)NC(=O)[C@@H](NC(=O)[C@H](Cc1ccccc1)NC(=O)[C@@H](NC(=O)CNC(=O)[C@H](CCC(=O)O)NC(=O)[C@H](C)NC(=O)[C@@H](N)Cc1cnc[nH]1)[C@@H](C)O)[C@@H](C)O)C(C)C)C(=O)N[C@@H](CCC(=O)O)C(=O)N[C@@H](Cc1ccccc1)C(=O)N[C@H](C(=O)N[C@@H](C)C(=O)N[C@@H](Cc1c[nH]c2ccccc12)C(=O)N[C@@H](CC(C)C)C(=O)N[C@H](C(=O)N[C@@H](CCCNC(=N)N)C(=O)NCC(=O)N[C@@H](CCCNC(=N)N)C(=O)NCC(=O)O)C(C)C)[C@@H](C)CC)C(=O)O` [Liraglutide] the clinical signs [1] was “normal” and the mortality [1] was “no mortality observed”.

For `C[C@@H](O)[C@@H]1NC(=O)[C@H](CCCCN)NC(=O)[C@@H](Cc2c[nH]c3ccccc23)NC(=O)[C@H](Cc2ccccc2)NC(=O)[C@@H](NC(=O)[C@H](N)Cc2ccccc2)CSSC[C@@H](C(=O)N[C@H](CO)[C@@H](C)O)NC1=O` [octreotide], the clinical signs [2] was “normal” and the mortality [2] was “no mortality observed”.
